Test results reported in PubChem BioAssay AID328 (DTP/NCI, 2004).
Several values for one entry are separate records, joined by “and”; a condition that tells them apart may be missing. Equal values may be shown once. Inconclusive results and toxic doses are left out.

Test system: BDF1 mice, P388 leukemia ip, median survival T/C
Test: NCI In Vivo Anticancer Drug Screen. Data for tumor model P388 Leukemia (intraperitoneal) in B6D2F1 (BDF1) mice
Conditions: endpoint: median survival time, higher = longer survival
Outline: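 Mice carrying the transplantable tumour receive compound or vehicle. Survival is followed in each arm, and the treated measure is divided by the vehicle measure.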

[1] = dose: 50.0 mg/kg/injection, schedule: Q01DX009 (ip), vehicle: saline with Tween-80
[2] = dose: 100.0 mg/kg/injection, schedule: Q01DX009 (ip), vehicle: saline with Tween-80
[3] = dose: 200.0 mg/kg/injection, schedule: Q01DX009 (ip), vehicle: saline with Tween-80
[4] = dose: 100.0 mg/kg/injection, schedule: Q01DX009 (ip), vehicle: saline
[5] = dose: 200.0 mg/kg/injection, schedule: Q01DX009 (ip), vehicle: saline
[6] = dose: 25.0 mg/kg/injection, schedule: Q01DX009 (ip), vehicle: Klucel (hydroxypropylcellulose) (HPC)
[7] = dose: 50.0 mg/kg/injection, schedule: Q01DX009 (ip), vehicle: Klucel (hydroxypropylcellulose) (HPC)
[8] = dose: 100.0 mg/kg/injection, schedule: Q04DX003 (ip), vehicle: saline with Tween-80
[9] = dose: 200.0 mg/kg/injection, schedule: Q04DX003 (ip), vehicle: saline with Tween-80
[10] = dose: 400.0 mg/kg/injection, schedule: Q04DX003 (ip), vehicle: saline with Tween-80

## O=C(NCc1cnccn1)c1ccc([N+](=O)[O-])cc1
[1]
  T/C: 100 % of control
[2]
  T/C: 94 % of control
[3]
  T/C: 100 % of control
dose: 400.0 mg/kg/injection, schedule: Q01DX009 (ip), vehicle: saline with Tween-80
  T/C: 103 % of control

## N#CC1=C(N)CCCC1
dose: 50.0 mg/kg/injection, schedule: Q01DX009 (ip), vehicle: saline
  T/C: 97 % of control
[4]
  T/C: 99 % of control
[5]
  T/C: 102 % of control

## CN(N=O)C(=O)NNC(=O)N(C)N=O
dose: 40.0 mg/kg/injection, schedule: Q04DX003 (ip), vehicle: saline with Tween-80
  T/C: 105 % of control
dose: 60.0 mg/kg/injection, schedule: Q04DX003 (ip), vehicle: saline with Tween-80
  T/C: 115 % of control
dose: 90.0 mg/kg/injection, schedule: Q04DX003 (ip), vehicle: saline with Tween-80
  T/C: 105 % of control

## C=C(C)C(=O)O[C@H]1C[C@@]23O[C@@H]2CCC(=C[C@H]2OC(=O)C(=C)[C@H]12)COC3O (stereo partly drawn)
dose: 9.37 mg/kg/injection, schedule: Q01DX009 (ip), vehicle: saline
  T/C: 108 % of control
dose: 18.75 mg/kg/injection, schedule: Q01DX009 (ip), vehicle: saline
  T/C: 104 % of control
dose: 18.75 mg/kg/injection, schedule: Q04DX003 (ip), vehicle: saline
  T/C: 113 % of control
dose: 37.5 mg/kg/injection, schedule: Q04DX003 (ip), vehicle: saline
  T/C: 95 % of control

## Clc1c(Cl)c2c(Cl)c(Cl)c1C[P+](c1ccccc1)(c1ccccc1)CC[P+](c1ccccc1)(c1ccccc1)Cc1c(Cl)c(Cl)c(c(Cl)c1Cl)C[P+](c1ccccc1)(c1ccccc1)CC[P+](c1ccccc1)(c1ccccc1)C2
dose: 1.56 mg/kg/injection, schedule: Q01DX009 (ip), vehicle: water
  T/C: 92 % of control
dose: 3.13 mg/kg/injection, schedule: Q01DX009 (ip), vehicle: water
  T/C: 113 % of control
dose: 6.25 mg/kg/injection, schedule: Q01DX009 (ip), vehicle: water
  T/C: 106 % of control

## CCCCCCCCCCCCN(CCC(=O)O)S(=O)(=O)O
[6]
  T/C: 95 % of control
[7]
  T/C: 104 % of control
dose: 75.0 mg/kg/injection, schedule: Q04DX003 (ip), vehicle: Klucel (hydroxypropylcellulose) (HPC)
  T/C: 100 % of control
dose: 100.0 mg/kg/injection, schedule: Q01DX009 (ip), vehicle: Klucel (hydroxypropylcellulose) (HPC)
  T/C: 90 % of control
dose: 150.0 mg/kg/injection, schedule: Q04DX003 (ip), vehicle: Klucel (hydroxypropylcellulose) (HPC)
  T/C: 100 % of control

## O=C1c2cccnc2C(=O)c2c(O)ccc(O)c21
dose: 25.0 mg/kg/injection, schedule: Q01DX009 (ip), vehicle: saline with Tween-80
  T/C: 97 % of control
[1]
  T/C: 99 % of control
[2]
  T/C: 92 % of control
[3]
  T/C: 115 % of control

## CCOc1ccc(C(=O)Nc2c(C)cc(C)cc2C)cc1
[8]
  T/C: 96 % of control
[9]
  T/C: 112 % of control
[10]
  T/C: 104 % of control

## Nc1cc(S(N)(=O)=O)ccc1SSc1ccc(S(N)(=O)=O)cc1N
[4]
  T/C: 122 % of control
[5]
  T/C: 154 % of control

## O=CNc1ccc(O)cc1
[8]
  T/C: 104 % of control
[9]
  T/C: 104 % of control
[10]
  T/C: 100 % of control

## OC1OCCOC1O (stereo not drawn)
dose: 17.8 mg/kg/injection, schedule: Q01DX009 (ip), vehicle: saline
  T/C: 101 % of control
dose: 26.6 mg/kg/injection, schedule: Q01DX009 (ip), vehicle: saline
  T/C: 112 % of control
dose: 40.0 mg/kg/injection, schedule: Q01DX009 (ip), vehicle: saline
  T/C: 110 % of control
dose: 65.0 mg/kg/injection, schedule: Q01DX009 (ip), vehicle: saline
  T/C: 121 % of control
[4]
  T/C: 166 % of control
dose: 150.0 mg/kg/injection, schedule: Q01DX009 (ip), vehicle: saline
  T/C: 169 % of control
dose: 178.0 mg/kg/injection, schedule: Q01DX009 (ip), vehicle: saline
  T/C: 166 % of control
[5]
  T/C: 166 % of control
dose: 266.0 mg/kg/injection, schedule: Q01DX009 (ip), vehicle: saline
  T/C: 165 % of control
dose: 400.0 mg/kg/injection, schedule: Q01DX009 (ip), vehicle: saline
  T/C: 157 % of control and 161 % of control and 168 % of control

## CCOC(=O)Cc1c[nH]c2ccc(N(CCCl)CCCl)cc12
dose: 0.11 mg/kg/injection, schedule: Q04DX003 (ip), vehicle: Klucel (hydroxypropylcellulose) (HPC)
  T/C: 116 % of control
dose: 0.17 mg/kg/injection, schedule: Q04DX003 (ip), vehicle: Klucel (hydroxypropylcellulose) (HPC)
  T/C: 120 % of control
dose: 0.26 mg/kg/injection, schedule: Q04DX003 (ip), vehicle: Klucel (hydroxypropylcellulose) (HPC)
  T/C: 100 % of control
dose: 0.5 mg/kg/injection, schedule: Q01DX009 (ip), vehicle: Klucel (hydroxypropylcellulose) (HPC)
  T/C: 154 % of control
dose: 0.8 mg/kg/injection, schedule: Q01DX009 (ip), vehicle: Klucel (hydroxypropylcellulose) (HPC)
  T/C: 175 % of control
dose: 0.9 mg/kg/injection, schedule: Q04DX003 (ip), vehicle: Klucel (hydroxypropylcellulose) (HPC)
  T/C: 154 % of control
dose: 1.3 mg/kg/injection, schedule: Q01DX009 (ip), vehicle: Klucel (hydroxypropylcellulose) (HPC)
  T/C: 250 % of control
dose: 1.4 mg/kg/injection, schedule: Q04DX003 (ip), vehicle: Klucel (hydroxypropylcellulose) (HPC)
  T/C: 163 % of control
dose: 2.0 mg/kg/injection, schedule: Q01DX009 (ip), vehicle: Klucel (hydroxypropylcellulose) (HPC)
  T/C: 272 % of control
dose: 2.2 mg/kg/injection, schedule: Q04DX003 (ip), vehicle: Klucel (hydroxypropylcellulose) (HPC)
  T/C: 204 % of control
dose: 3.0 mg/kg/injection, schedule: Q01DX009 (ip), vehicle: Klucel (hydroxypropylcellulose) (HPC)
  T/C: 230 % of control and 272 % of control
dose: 3.3 mg/kg/injection, schedule: Q04DX003 (ip), vehicle: Klucel (hydroxypropylcellulose) (HPC)
  T/C: 222 % of control
dose: 4.5 mg/kg/injection, schedule: Q01DX009 (ip), vehicle: Klucel (hydroxypropylcellulose) (HPC)
  T/C: 154 % of control
dose: 5.0 mg/kg/injection, schedule: Q04DX003 (ip), vehicle: Klucel (hydroxypropylcellulose) (HPC)
  T/C: 245 % of control and 272 % of control
dose: 6.0 mg/kg/injection, schedule: Q01DX009 (ip), vehicle: Klucel (hydroxypropylcellulose) (HPC)
  T/C: 107 % of control
dose: 7.5 mg/kg/injection, schedule: Q04DX003 (ip), vehicle: Klucel (hydroxypropylcellulose) (HPC)
  T/C: 240 % of control
dose: 8.0 mg/kg/injection, schedule: Q04DX003 (ip), vehicle: Klucel (hydroxypropylcellulose) (HPC)
  T/C: 272 % of control
dose: 12.5 mg/kg/injection, schedule: Q04DX003 (ip), vehicle: Klucel (hydroxypropylcellulose) (HPC)
  T/C: 272 % of control

## COc1cc(N(CCCl)CCCl)c(OC)cc1/C=N/NC(=O)CC(N)C(=O)O (stereo not drawn)
dose: 16.0 mg/kg/injection, schedule: Q01DX009 (ip), vehicle: Klucel (hydroxypropylcellulose) (HPC)
  T/C: 153 % of control
[6]
  T/C: 150 % of control and 179 % of control
dose: 35.0 mg/kg/injection, schedule: Q01DX009 (ip), vehicle: Klucel (hydroxypropylcellulose) (HPC)
  T/C: 153 % of control
[7]
  T/C: 177 % of control
dose: 65.0 mg/kg/injection, schedule: Q04DX003 (ip), vehicle: Klucel (hydroxypropylcellulose) (HPC)
  T/C: 181 % of control
dose: 100.0 mg/kg/injection, schedule: Q04DX003 (ip), vehicle: Klucel (hydroxypropylcellulose) (HPC)
  T/C: 235 % of control
dose: 132.0 mg/kg/injection, schedule: Q04DX003 (ip), vehicle: Klucel (hydroxypropylcellulose) (HPC)
  T/C: 240 % of control and 247 % of control
dose: 200.0 mg/kg/injection, schedule: Q04DX003 (ip), vehicle: Klucel (hydroxypropylcellulose) (HPC)
  T/C: 265 % of control and 272 % of control and 180 % of control
dose: 400.0 mg/kg/injection, schedule: Q04DX003 (ip), vehicle: Klucel (hydroxypropylcellulose) (HPC)
  T/C: 100 % of control

## N[C@H](Cc1c[nH]c2ccccc12)C(=O)O
dose: 100.0 mg/kg/injection, schedule: Q01DX010 (ip), vehicle: saline
  T/C: 92 % of control
dose: 200.0 mg/kg/injection, schedule: Q01DX010 (ip), vehicle: saline
  T/C: 96 % of control
dose: 400.0 mg/kg/injection, schedule: Q01DX010 (ip), vehicle: saline
  T/C: 96 % of control
dose: 800.0 mg/kg/injection, schedule: Q01DX010 (ip), vehicle: saline
  T/C: 110 % of control

## CCCCCCCCCCCCNC(=O)c1ccc[n+](C)c1
dose: 6.25 mg/kg/injection, schedule: Q01DX009 (ip), vehicle: saline
  T/C: 118 % of control
dose: 12.5 mg/kg/injection, schedule: Q01DX009 (ip), vehicle: saline
  T/C: 109 % of control
dose: 25.0 mg/kg/injection, schedule: Q01DX009 (ip), vehicle: saline
  T/C: 113 % of control
